According to patent US6423829B1 (St. Jude Children's Research Hosital, priority 1997, dated 2002):
Structures can show the parent of a compound that is named as a salt.

Assays:
[1] = biological target: T1, hENT2 (ei transporter) in CEM/N1-7 cells (Homo sapiens, UniProt Q14542); assay: 3H-uridine uptake in CEM/N1-7 cells in the presence of nucleoside transport inhibitors; format: cell-based; conditions: for effect on uridine transport in CEM/N1-7 cells: FIG. 1B
T1 construct: expressed in transfected cells; host or cells: CEM/C19 (nucleoside-transport-deficient, EBNA-1-expressing subline of human T-cell leukemia CEM) carrying plasmid pDR2/N1-7
T1 sequence (Q14542 1-456): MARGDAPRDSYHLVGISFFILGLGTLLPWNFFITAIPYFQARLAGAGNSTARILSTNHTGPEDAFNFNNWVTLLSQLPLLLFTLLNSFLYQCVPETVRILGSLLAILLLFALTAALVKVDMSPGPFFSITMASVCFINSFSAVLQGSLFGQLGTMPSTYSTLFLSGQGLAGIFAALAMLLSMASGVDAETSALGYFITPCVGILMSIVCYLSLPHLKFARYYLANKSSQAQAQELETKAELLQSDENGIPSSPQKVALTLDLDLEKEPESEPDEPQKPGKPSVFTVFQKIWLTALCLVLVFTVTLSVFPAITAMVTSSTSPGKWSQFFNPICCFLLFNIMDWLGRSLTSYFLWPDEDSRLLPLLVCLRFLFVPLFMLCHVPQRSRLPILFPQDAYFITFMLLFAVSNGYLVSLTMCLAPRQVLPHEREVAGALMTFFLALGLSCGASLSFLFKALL
Protocol: The values shown are means of duplicate assays and have been corrected for extracellular water space.
FIGS. 1B-1C depict the uptake of 10 μM ^3H-uridine determined at 22° C. in Na^+buffer using a 7.5 second uptake interval in the presence of nucleoside transport inhibitors. The uptake interval was initiated by simultaneous addition of the label and inhibitory nucleobase, nucleoside or nucleotide. […] This value was subtracted from the total uridine uptake values.
Removal of sodium from the buffer had no effect on transport in CEM/N1-7 indicating the presence of an equilibrative type transporter. […] (FIG. 1B). As expected from the permeant selectivity observed for ei activity in several cell lines [Plagemann et al., Biochim. Biophys. […] This was recently confirmed by Jarvis and colleagues [Osses et al., Biochem. J., 317:843-848 (1996)] by direct measurements of hypoxanthine in human vascular endothelial cells. […] All these features are consistent with those of an ei transporter, ie., an iENTP.

CEM/C19 cells = assay: DUP-785 toxicity and uridine rescue in CEM/C19 cells; format: cell-based, human
[2] = system: concentrative nucleoside transporters (cif, cit, cib); conditions: at concentrations up to 10 μM; cited from earlier work
[3] = biological target: T2, human ei transporter in HeLa cells (Homo sapiens, UniProt Q14542); conditions: read-out: IC50 for inhibition of uridine transport via ei; cited from earlier work
T2 construct: the human ei transporter in HeLa cells where the IC50 values; host or cells: HeLa cells (endogenous)
T2 sequence (Q14542 1-456): T1 sequence (Q14542 1-456)

O=c1[nH]cnc2nc[nH]c12 [hypoxanthine]
effect on uridine influx in CEM/N1-7 cells ([1]; competing nucleobase, nucleoside or nucleotide added with label, FIG. 1C): inhibited

Cc1c(-c2ccc(-c3ccccc3F)cc2)nc2ccc(F)cc2c1C(=O)O [DUP-785, 6-fluoro-2(2′--fluoro-1, 1′-biphenyl-4-yl)-3-methyl-4-quinoline carboxylic acid sodium salt]
sensitivity of cells to the de novo uridylate synthesis inhibitor (CEM/C19 cells): sensitive

OCCN(CCO)c1nc(N2CCCCC2)c2nc(N(CCO)CCO)nc(N3CCCCC3)c2n1 [DIP, bis(diethanolamino)-4,8-dipiperidinopyrimido-[5,4-d]-2,6-pyrimidine]
effect on uridine transport in CEM/N1-7 cells ([1]; 10 μM inhibitor): completely blocked
sensitivity of the concentrative nucleoside transporters [2]: insensitive

O=[N+]([O-])c1ccc(CSc2ncnc3c2ncn3C2OC(CO)C(O)C2O)cc1 [NBMPR, 6-[(4-nitrobenzyl)thio-9-β-D-ribofuranosylpurine]]
effect on uridine transport in CEM/N1-7 cells ([1]; 0.1 μM inhibitor, 10 μM 3H-uridine, 22° C.): had no effect
effect on uridine transport in CEM/N1-7 cells ([1]; higher concentrations of inhibitor): Partial inhibition
sensitivity of the concentrative nucleoside transporters [2]: insensitive
IC50 [3]: 6 µM
